Results from patent US9005581B2, “Modified pyrazine derivatives and uses thereof” (MediBeacon, LLC, priority 2008, dated 2015).
Marks after values point to notes of the source that are not given here.

Legend:
[1] = Probenecid inhibition studies (invasive pharmacokinetics after probenecid); format: in vivo, Sprague-Dawley rats; settings: rat plasma, 70 mg/kg Probenecid 10 min prior to test compound, values in brackets, mean ± SEM (n)
Description: (§1) Male Sprague-Dawley rats (330-380 g) are anesthetized by Inactin (I.P.). Rats are surgically instrumented with a trachea tube (PE-190) to facilitate breathing and femoral artery and vein catheters (PE-50 filled with 20 units/mL heparinized saline) for blood sampling and drug administration respectively. After administration of 1 mL of a 2 mM solution of agent, approximately 200 μL blood is sampled and placed into a heparinized tube (Microtainer Brand Tube w/Lithium Heparin, BD 365971) at 0, 1, 6, 12, 18, 30, 45, 60, 90, 120 min. The concentration of compound in each centrifuged plasma sample is determined via HPLC analysis using a set of external calibration standards and fluorescence detection. The resulting pharmacokinetic parameters of the compound are analyzed using WinNonLin pharmacokinetic modeling software (Pharsight, Mountain View, Calif.). This method is used to detect renally excretable compounds of the invention and FIG. 8B provides a plot illustrating invasive PK (plasma concentration) as a function of time following delivery of a renally excretable compound.
Six male Sprague-Dawley rats are treated in the same manner as described above in the invasive pharmacokinetic studies. These 6 rats receive 70 mg/kg Probenecid (Sigma-Aldrich; St. Louis, Mo.) 10 min prior to the test compound; this administration is flushed with 0.2 ml NaCl.

[2] = Invasive pharmacokinetic studies (plasma concentration); format: in vivo, Sprague-Dawley rats; settings: rat plasma, 1 mL of 2 mM solution i.v., mean ± SEM (n); for clearance: male, Sprague-Dawley, iv, 1 mL of a 2 mM solution, read-out: Pharmacokinetics Clearance
Description: as §1

[3] = Urine elimination studies; format: in vivo, Sprague-Dawley rats; settings: rat, 1 mL of 2 mM in PBS by tail vein injection, mean ± SEM (n)
Description: Rat urine elimination studies are conducted in either conscious or anesthetized Sprague-Dawley rats. The test compound (1 mL, 2 mM in PBS) is administered by tail vein injection into conscious, restrained rats, with subsequent collection of urine at the time points of 2, 4 and 6 h post injection. The metabolic cages are washed with water to maximize the recovery of urine discharged at each time point. Alternatively, rats are anesthetized with 100 mg/kg Inactin intraperitoneally, a trachea tube is inserted to maintain adequate respiration, and 1 mL of test compound is injected into the lateral tail vein. Rats are placed on 37° C. heating pad during the entire experiment. At 6 h post injection, the abdomen is opened, and the urine is removed from the bladder using a 21 gauge needle and a 3 cc syringe. Quantitation of each compound in urine is performed via HPLC analysis using a set of external calibration standards and fluorescence detection. The percent recovery of compound in urine at each time point is calculated based on the balance of mass.

[4] = Non-invasive optical pharmacokinetic studies (fluorescence at the ear); format: in vivo, Sprague-Dawley rats; settings: rat ear fluorescence, 1 mL of 2 mM solution into tail vein; mean ± SEM (n)
Description: Male Sprague-Dawley rats (330-380 g) are anesthetized by Inactin (I.P.) or 2% Isoflurane gas anesthesia delivered by a small rodent gas anesthesia machine (RC2, Vetequip, Pleasanton, Calif.). The animals are placed on a heated board where temperature is maintained between 36-38° C. One ear lobe is glued flat to a glass slide positioned approximately 2 mm beneath a fiber optic bundle for recording fluorescence from a test compound passing through the ear. After a 100 second baseline recording, 1 mL of a 2 mM solution is injected into the tail-vein of the rat and the fluorescence signal corresponding to plasma and tissue distribution and subsequent renal clearance of the compound is monitored at the ear. The pharmacokinetic parameters of the compounds are analyzed using WinNonLin pharmacokinetic modeling software (Pharsight, Mountain View, Calif.) and Microsoft (Redmond, Wash.) Excel. This method is used to detect renally excretable compounds of the invention and FIG. 8A provides a plot illustrating non-invasive in vivo fluorescence as a function of time following delivery of a renally excretable compound.
A nominal 473 nm solid state laser source (100) is employed (Power Technology model LDCU12/7314). The laser source is directed into one leg (110) of a silica bifurcated fiber optic bundle (120) (Oriel #77565). The common end of this bifurcated bundle (130) is placed approximately 2 mm from the rat ear (140). The second leg of the bifurcated fiber optic bundle (150) is fitted with a collimating beam probe (160) (Oriel #77644). A long pass filter (170) (Semrock LP02-488RS-25) and narrow band interference filter (180) (Semrock FF01-593/40-25) are placed in front of a photomultiplier tube (190) (Hamamatsu photosensor module H7827-011).
A chopper (200) (Stanford Research Systems model SR540) is placed after the laser and before the launch into the bifurcated cable. The output of the photosensor is connected to a lock-in amplifier (210) (Stanford Research Systems model SR830). The lock-in output is digitized (220) (National Instruments NI-USB-6211) and the digitized data is acquired by computer using LabVIEW® data acquisition software (230).

[5] = Photophysical properties (fluorescence excitation/emission in PBS); format: physicochemical; settings: 10 μM solution in PBS
Description: In general, renally excretable compounds are dissolved in PBS buffer to form a 2 mM stock solution. The UV absorbance properties are determined on a 100 μM solution in PBS using a UV-3101PC UV-Vis-NIR Scanning spectrophotometer system from Shimadzu. The fluorescence properties (λex, λem, and CPS at λem) are determined on a 10 μM solution in PBS using a Fluorolog-3 spectrofluorometer system from Jobin Yvon Horiba. The percent plasma protein binding is determined on a 20 μM compound solution in rat plasma incubated at 37° C. for 1 h. The separation of free from bound is made using an Amicon Centrifree YM-30 device (Regenerated Cellulose 30,000 MWCO) and a Z400K Refrigerated Universal Centrifuge from Hermle. The concentration of protein-free is determined via HPLC analysis using a set of external calibration standards and fluorescence detection.

Structure (SMILES)	clearance ([1]; male, Sprague-Dawley, iv, with probenecid 70 mg/kg, 10 min prior to the test compound, read-out: Pharmacokinetics Clearance, probenecid challenge experiment)	Pharmacokinetics T1/2β, probenecid challenge experiment [1]	clearance [2]	Pharmacokinetics T1/2β [2]	Percent found in Urine (6 hrs) [3]	Tissue Clearance (Optical) T1/2β [4]	Photophysical Properties Emission λmax [5]	Photophysical Properties Excitation λmax [5]
COCCOCCOCCOCCOCCOCCOCCOCCOCCOCCOCCOCCCNc1nc(C(=O)NCCOCCOCCOCCOCCOCCOCCOCCOCCOCCOCCOCCOC)c(NCCCOCCOCCOCCOCCOCCOCCOCCOCCOCCOCCOCCOC)nc1C(=O)NCCOCCOCCOCCOCCOCCOCCOCCOCCOCCOCCOCCOC [Compound 1, 3,6-Bis(2,5,8,11,14,17,20,23,26,29,32,35-dodecaoxaoctatriacontan-38-ylamino)-N^2,N^5-di(2,5,8,11,14,17,20,23,26,29,32,35-dodecaoxaheptatriacontan-37-yl)pyrazine-2,5-dicarboxamide]	3.3 mL/min	[18.0 ± 0.3 (3)]^c min	3.1 ± 0.2 mL/min	18.8 ± 0.6 (3) min	97 ± 0.4 (3)^b Percent	19.9 ± 2.4 (3) min	605 nm	500 nm
COCCOCCOCCOCCOCCOCCOCCOCCOCCOCCOCCOCCCNc1nc(C(=O)NCCOCCOCCOCCOCCOCCOCCOCCOCCOCCOCCOCCOCCOCCOCCOCCOCCOCCOCCOCCOCCOCCOCCOCCOC)c(NCCCOCCOCCOCCOCCOCCOCCOCCOCCOCCOCCOCCOC)nc1C(=O)NCCOCCOCCOCCOCCOCCOCCOCCOCCOCCOCCOCCOCCOCCOCCOCCOCCOCCOCCOCCOCCOCCOCCOCCOC [Compound 3, 3,6-Bis(2,5,8,11,14,17,20,23,26,29,32,35-dodecaoxaoctatriacontan-38-ylamino)-N^2,N^5-di(2,5,8,11,14,17,20,23,26,29,32,35,38,41,44,47,50,53,56,59,62,65,68,71-tetracosaoxatriheptacontan-73-yl)pyrazine-2,5-dicarboxamide]	–	–	2.5 ± 0.2 mL/min	30.5 ± 3.2 (3) min	89 ± 2 (3) Percent	20.4 ± 2.0 (4) min	602 nm	499 nm
COCCOCCOCCOCCOCCOCCOCCOCCOCCOCCOCCOCCOCCOCCOCCOCCOCCOCCOCCOCCOCCOCCOCCOCCCNc1nc(C(=O)NCCOCCOCCOCCOCCOCCOCCOCCOCCOCCOCCOCCOCCOCCOCCOCCOCCOCCOCCOCCOCCOCCOCCOCCOC)c(NCCCOCCOCCOCCOCCOCCOCCOCCOCCOCCOCCOCCOCCOCCOCCOCCOCCOCCOCCOCCOCCOCCOCCOCCOC)nc1C(=O)NCCOCCOCCOCCOCCOCCOCCOCCOCCOCCOCCOCCOCCOCCOCCOCCOCCOCCOCCOCCOCCOCCOCCOCCOC [Compound 5, 3,6-bis(2,5,8,11,14,17,20,23,26,29,32,35,38,41,44,47,50,53,56,59,62,65,68,71-tetracosaoxatetraheptacontan-74-ylamino)-N^2,N^5-di(2,5,8,11,14,17,20,23,26,29,32,35,38,41,44,47,50,53,56,59,62,65,68,71-tetracosaoxatriheptacontan-73-yl)pyrazine-2,5-dicarboxamide]	–	–	–	–	86 ± 7 (3) Percent	17.6 ± 0.9 (4) min	603 nm	495 nm
COCCOCCOCCOCCOCCOCCOCCOCCCNc1nc(C(=O)NCCOCCOCCOCCOCCOCCOCCOCCOCCOCCOCCOCCOCCOCCOCCOCCOCCOCCOCCOCCOCCOCCOCCOCCOC)c(NCCCOCCOCCOCCOCCOCCOCCOCCOC)nc1C(=O)NCCOCCOCCOCCOCCOCCOCCOCCOCCOCCOCCOCCOCCOCCOCCOCCOCCOCCOCCOCCOCCOCCOCCOCCOC [Compound 6, 3,6-bis(2,5,8,11,14,17,20,23-octaoxahexacosan-26-ylamino)-N^2,N^5-di(2,5,8,11,14,17,20,23,26,29,32,35,38,41,44,47,50,53,56,59,62,65,68,71-tetracosaoxatriheptacontan-73-yl)pyrazine-2,5-dicarboxamide]	–	–	–	–	92 ± 4 (3) Percent	19.1 ± 0.8 (4) min	603 nm	498 nm
COCCOCCOCCOCCCNc1nc(C(=O)NCCOCCOCCOCCOCCOCCOCCOCCOCCOCCOCCOCCOCCOCCOCCOCCOCCOCCOCCOCCOCCOCCOCCOCCOC)c(NCCCOCCOCCOCCOC)nc1C(=O)NCCOCCOCCOCCOCCOCCOCCOCCOCCOCCOCCOCCOCCOCCOCCOCCOCCOCCOCCOCCOCCOCCOCCOCCOC [Compound 7, 3,6-Bis(2,5,8,11-tetraoxatetradecan-14-ylamino)-N^2,N^5-di(2,5,8,11,14,17,20,23,26,29,32,35,38,41,44,47,50,53,56,59,62,65,68,71-tetracosaoxatriheptacontan-73-yl)pyrazine-2,5-dicarboxamide]	–	–	–	–	97 ± 2 (3) Percent	14.6 ± 1.1 (4) min	602 nm	494 nm
COCCOCCOCCOCCOCCOCCOCCOCCCNc1nc(C(=O)N[C@H](CO)C(=O)O)c(NCCCOCCOCCOCCOCCOCCOCCOCCOC)nc1C(=O)N[C@H](CO)C(=O)O [Compound 8, 3,6-Bis(2,5,8,11,14,17,20,23-octaoxahexacosan-26-ylamino)-N^2,N^5-bis[(R)-1-carboxy-2-hydroxyethyl]pyrazine-2,5-dicarboxamide]	–	–	–	–	61 ± 7 (3) Percent	–	–	–
COCCOCCOCCOCCCNc1nc(C(=O)NCC(O)CO)c(NCCCOCCOCCOCCOC)nc1C(=O)NCC(O)CO (stereo not shown) [Compound 13, 3,6-Bis(2,5,8,11-tetraoxatetradecan-14-ylamino)-N^2,N^5-bis(2,3-dihydroxypropyl)pyrazine-2,5-dicarboxamide]	–	–	–	–	29 ± 2 (3) Percent	–	–	–
COCCOCCOCCOCCCNc1nc(C(=O)NCCOCCOCCOCCOCCOCCOCCOCCOCCOCCOCCOCCOC)c(NCCCOCCOCCOCCOC)nc1C(=O)NCCOCCOCCOCCOCCOCCOCCOCCOCCOCCOCCOCCOC [Compound 15, 3,6-Bis(2,5,8,11-tetraoxatetradecan-14-ylamino)-N^2,N^5-di(2,5,8,11,14,17,20,23,26,29,32,35-dodecaoxaheptatriacontan-37-yl)pyrazine-2,5-dicarboxamide]	–	–	–	–	86 ± 1 (3) Percent	–	603 nm	492 nm
